Experimental data published in US11203582B2, “Benzamide derivatives for inhibiting endoplasmic reticulum (ER) stress” (The Board of Regents of the University of Oklahoma, priority 2017, dated 2021).

Assays:
Type in all cases: cell-based, rat
[1] = system: INS-1 cells; assay: MTT cell viability assay, INS-1 cells treated with Tm; conditions: Tm 0.1 μg/mL, 72 h, FIG. 2B
Description: The measurement of intracellular ATP level was use as a surrogate assay for cell viability. […] To confirm the authenticity of 13d's protective effect on β-cell viability (not simply an increase in ATP-specific measurement), we used the MTT assay, which measures the activity of NAD(P)H-dependent cellular oxidoreductase enzymes, as an orthogonal method to measure cell viability. […] To determine whether the protective effect of 13d on β-cells is specific to INS-1 cells, another β-cell line, βTC6, was used. […] In addition, compound 13d on its own had no effect on β-cell viability in both cell lines (FIG. 2C-D).
INS-1 cells or βTC6 cells were seeded at 3×10^3 cells/well in a 384-well plate and treated with compounds at the indicated concentrations. After 3 d treatment, the medium was aspirated and 10 μl of MTT reagent (Cayman Chemical, MI, USA, prepared according to manufacturer's instruction) to each well was added and mixed gently for one minute on an orbital shaker. The cells were then incubated for three hours at 37° C. in a CO2 incubator. After incubation, add 100 μl of crystal dissolving solution to each well, and incubate for 4 hours in a 37° C. CO2 incubator. Viability will be measured for the absorbance to each sample at 570 nm using EnVision multilabel plate reader (PerkinElmer, MA, USA).

[2] = system: cleaved caspase-3; assay: Western blotting of cleaved caspase-3 in Tm-treated INS-1 cells; conditions: Tm co-treatment, 24 h
Method: To determine whether the increase in β-cell viability following treatment with 13d is caused by a suppression of apoptotic cell death, several apoptosis-related makers were measured. First, levels of cleaved caspase-3 and cleaved PARP were assayed by Western blotting. Caspase-3, a member of executioner caspases activated by cleavage, plays essential roles in initiating apoptotic signaling and executing the final stages of cell death, whereas the nuclear enzyme poly (ADP-ribose) polymerase (PARP) plays an important role in a number of cellular processes involving DNA repair and cell death. […] However, upon severe ER stress, caspase 3 undergoes proteolytic cleavage to produce two subunits that dimerize to form the active enzyme, which in turns cleaves PARP. […] A further assessment of apoptotic INS-1 cell death was performed using TUNEL assays to detect nuclear DNA fragmentation (a consequence of cell apoptosis) in situ.
INS-1 cells were seeded in 60-mm dishes at 8×10^5 cells/dish and treated for the indicated times. Cells were then washed with PBS and lysed with lysis buffer (Cell Signaling Technology, Danvers, Mass.) containing EDTA (Thermo, Ill.) and phosphatase inhibitors (Thermo). Aliquots of 20 μg total protein were separated on 7% SDS-PAGE gels (Life Technologies) and transferred to PVDF membranes (Life Technologies). […]

[3] = system: XBP1s mRNA; assay: XBP1s mRNA (qRT-PCR and RT-PCR with gel electrophoresis) in Tm-treated INS-1 cells; conditions: Tm 0.1 μg/mL co-treatment, 8 h
Method: INS-1 cells were treated with or without Tm (0.1 μg/mL) in the presence of 13d or DMSO for 8 h. (A) XBP1s mRNA levels were analyzed by qRT-PCR. Relative mRNA levels were normalized against the housekeeping gene Cyclophilin A using the comparative CT method. ** P<0.01 compared with Tm treatment alone. Bars indicate SD. (B) XBP1 mRNA levels were analyzed by RT-PCR and the products were resolved by agarose gel electrophoresis. The full-length (unspliced, XBP1u) and spliced (XBP1s) forms of XBP1 mRNA are indicated. Cyclophilin A mRNA was used as a loading control. Quantification was analyzed by ImageJ program shown at the bottom. The data shown are representative of 3 independent experiments.
Next, we determined the effect of 13d on the activation of IRE1α in β-cells under ER stress. […] We therefore used XBP1 splicing as a marker for the activation of the IRE1α pathway and determined the effect of 13d on IRE1α-mediated XBP1 splicing in INS-1 cells in the presence of Tm.
(§1) INS-1 cells were seeded at 4×10^5 cells/well in 6-well plates and treated with compounds for the indicated times. […] Relative mRNA levels were normalized against the housekeeping gene Cyclophilin A and were determined by ΔΔCt calculated from the difference in ΔCt values between the target gene and Cyclophilin A with and without treatment, based on comparative CT (cycle threshold) method. […]

[4] = system: GRP94 mRNA; assay: qRT-PCR of GRP94 mRNA in Tm-treated INS-1 cells; conditions: Tm 0.1 μg/mL co-treatment, 8 h
Method: INS-1 cells were treated with or without Tm (0.1 μg/mL) in the presence of 13d or DMSO for 8 h. Bip (A) and GRP94 (B) mRNA levels were analyzed by qRT-PCR. Relative mRNA levels were normalized against the housekeeping gene Cyclophilin A using the comparative CT method. The results are the means of 3 replicate wells and representative of 3 independent experiments. ** P<0.01 compared with Tm treatment alone. Error bars indicate SD.
We then investigated the effects of 13d on the activation of ATF6 in β-cells under ER stress. Activated ATF6 acts as a homodimer or as an ATF6-XBP1s heterodimer to control the up-regulation of select UPR target genes including the chaperone proteins BiP and GRP94. Therefore, these two chaperone proteins were evaluated in the INS-1 cells in the presence of Tm.
as §1, with “times. Total RNA was extracted using TRIzol reagent (Invitrogen, Carlsbad, Calif.) according to the manufacturer's protocol, and 2 μg of total RNA was reverse transcribed using a Superscript kit (Invitrogen).” for “times.”

SMILES: O=C(NCc1ccc(C(F)(F)F)cc1)c1cccc(CN2CCCCC2)c1 [Compound 13d, N-(4-trifluoromethylphenmethyl)-3-(N-piperidinyl)methyl benzamide]
- viability of INS-1 cells under Tm treatment (MTT) [1]: restored the viability of INS-1 cells
- Tm-induced cleavage of caspase-3 [2]: completely or significantly diminished
- Tm-induced increase in XBP1s mRNA level (qRT-PCR) [3]: abolished
- Tm-induced generation of XBP1s mRNA (RT-PCR, electrophoretic separation) ([3]; FIG. 6B): inhibits
- Tm-induced up-regulation of GRP94 mRNA [4]: almost completely reversed
